The results in this text go back to US10316017B2, “COT modulators and methods of use thereof” (Gilead Sciences, Inc., priority 2015, dated 2019).

In assay [1] the target is T1, human Cot catalytic domain (30-397 amino acids) (Homo sapiens, UniProt P41279).
T1 construct: Purified recombinant human Cot catalytic domain (30-397 amino acids) was purchased from Cama Biosciences; purchased Cama Biosciences (so in the source)
The assay can be described thus: High Throughput Cot Biochemical Assay (KinEASE TR-FRET). The note with it: read-out: IC50 HTRF. Put shortly:
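TR-FRET readout: Eu-labeled phospho-specific antibody binds XL665-tagged STK3 peptide after phosphorylation by Cot (aa 30-397, 5 nM). Conditions: 400 μM ATP, 1 μM peptide, MOPS pH 7.0 buffer with MgOAc, DTT, BSA, NP-40, glycerol; 0.1% DMSO.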

In assay [2] the test system is TNFα production in LPS-stimulated human monocytes. The assay can be described thus: Cot Monocyte TNFα Cell Based Assay. The note with it: Homo sapiens, Monocyte, read-out: EC50 TNF. A digest of the protocol:
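TR-FRET read-out of total secreted TNFα, normalized as % control (unstimulated = 0%, LPS-stimulated = 100%). Cells (5,000/well) were exposed to compound 1 h at 37 °C, then to 50 pg/ml LPS for a further 4 h.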

Where [3] appears, read: Cot KinEASE TR-FRET (HTRF) biochemical assay, 400 μM ATP.
The mark [4] stands for this setting: TNFα in LPS-stimulated human monocytes.
Setting [5] is: Cot biochemical HTRF (KinEASE TR-FRET) assay.
[6] abbreviates: Cot KinEASE TR-FRET, 400 μM ATP.
Setting [7] is: LPS-stimulated human monocytes, TNFα TR-FRET.

Read-outs that look alike come from different tables or passages of the source.

T1 sequence (P41279 30-397): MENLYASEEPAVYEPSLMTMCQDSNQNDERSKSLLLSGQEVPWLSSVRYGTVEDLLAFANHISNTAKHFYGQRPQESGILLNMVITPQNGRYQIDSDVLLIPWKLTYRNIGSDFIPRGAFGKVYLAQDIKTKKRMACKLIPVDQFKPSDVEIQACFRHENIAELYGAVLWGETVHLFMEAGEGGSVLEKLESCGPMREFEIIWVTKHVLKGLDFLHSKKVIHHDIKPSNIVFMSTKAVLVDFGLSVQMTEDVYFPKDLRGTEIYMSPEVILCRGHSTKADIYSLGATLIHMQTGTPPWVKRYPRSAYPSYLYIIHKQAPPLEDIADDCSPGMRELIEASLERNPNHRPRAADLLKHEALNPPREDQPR

Turning to `CC(C)n1cc([C@@H](Nc2cc(Cl)c3ncc(C#N)c(N[C@H](CC#N)c4ccccc4)c3c2)c2ccc(F)cc2)nn1` [Example 305, 8-chloro-4-(((R)-2-cyano-1-phenylethyl)amino)-6-(((S)-(4-fluorophenyl)(1-isopropyl-1H-1,2,3-triazol-4-yl)methyl)amino)quinoline-3-carbonitrile], the IC50 in assay [1] (setting [3]) was 4 nM. Further, the EC50 in assay [2] (setting [4]) is 78 nM.
On the same counts, the results for `CC(C)(C)CNc1c(C#N)cnc2c(C#N)cc(N[C@@H](c3cccc(NS(C)(=O)=O)c3)c3cn(C4CC4)nn3)cc12` [Example 68, (S)-N-(3-((1-cyclopropyl-1H-1,2,3-triazol-4-yl)((3,8-dicyano-4-(neopentylamino)quinolin-6-yl)amino)methyl)phenyl)methanesulfonamide] are 3 nM and more than 1000 nM.
With `CC(C)(O)CNc1c(C#N)cnc2c(Cl)cc(N[C@@H](c3ccccc3)c3cn(C4CCN(C(C)(C)C)CC4)nn3)cc12` [Example 555, (S)-6-(((1-(1-(tert-butyl)piperidin-4-yl)-1H-1,2,3-triazol-4-yl)(phenyl)methyl)amino)-8-chloro-4-((2-hydroxy-2-methylpropyl)amino)quinoline-3-carbonitrile], in assay [1] (setting [5]), the IC50 came out at 183 nM. The half-maximal effective concentration (EC50) in assay [2] (setting [4]) was determined as 537 nM.
On the same counts, the results for `CC[C@@H](Nc1c(C#N)cnc2c(Cl)cc(N[C@@H](c3ccccc3)c3cn(C(C)C)nn3)cc12)c1ccccc1` [Example 592, 8-chloro-6-(((S)-(1-isopropyl-1H-1,2,3-triazol-4-yl)(phenyl)methyl)amino)-4-(((R)-1-phenylpropyl)amino)quinoline-3-carbonitrile] are 7 nM and 352 nM.
For `[2H][C@](Nc1cc(F)c2ncc(C#N)c(N[C@@H](CCC#N)c3ccccc3)c2c1)(c1cccc(C#N)c1)c1cn(C2CC2)nn1` [Example 165, 4-(((S)-3-cyano-1-phenylpropyl)amino)-6-(((S)-(3-cyanophenyl) (1-cyclopropyl-1H-1,2,3-triazol-4-yl)methyl-d)amino)-8-fluoroquinoline-3-carbonitrile], the IC50 in assay [1] (setting [3]) was 2090 nM. The EC50 in assay [2] (setting [4]) was found to be 6270 nM.
As to `[2H][C@@](Nc1cc(Cl)c2ncc(C#N)c(NC3(c4ccccc4)CC3)c2c1)(c1cn(C2CC2)nn1)c1ccccc1Cl` [Example 356], the IC50 in assay [1] (setting [3]) was found to be 550 nM. Also, in assay [2] (setting [4]), the EC50 was determined as 6660 nM.
For the compound `N#Cc1cnc2c(Cl)cc(N[C@@H](c3ccccc3)c3cn(CCCN4CCCC4)nn3)cc2c1Nc1c(F)cc(F)cc1F` [Example 472, (S)-8-chloro-6-((phenyl(1-(3-(pyrrolidin-1-yl)propyl)-1H-1,2,3-triazol-4-yl)methyl)amino)-4-((2,4,6-trifluorophenyl)amino) quinoline-3-carbonitrile], the IC50 in assay [1] (setting [5]) came to 96 nM. Besides, the concentration giving a half-maximal response (EC50) in assay [2] (setting [4]) was 2360 nM.
For `[2H][C@](Nc1cc(-c2cnc(C)nc2)c2ncc(C#N)c(NCC(C)(C)C)c2c1)(c1ccc(F)cc1)c1cn(C2CC2)nn1` [Compound 62], the IC50 in assay [1] (setting [3]) is 29 nM. Also, in assay [2] (setting [4]), the EC50 is 447 nM.
With `N#Cc1cnc2c(Cl)cc(N[C@@H](c3cccc(-c4ncco4)c3)c3c[nH]nn3)cc2c1Nc1cnc(F)c(F)c1` [Example 498, (S)-8-chloro-4-((5,6-difluoropyridin-3-yl)amino)-6-(((3-(oxazol-2-yl)phenyl)(1H-1,2,3-triazol-4-yl)methyl)amino) quinoline-3-carbonitrile], the IC50 in assay [1] (setting [5]) worked out at 8 nM. Further, the EC50 in assay [2] (setting [4]) amounted to 520 nM.
Turning to `N#Cc1cnc2c(Cl)cc(N[C@H](c3c[nH]nn3)c3c(F)cc(F)cc3F)cc2c1Nc1cnc(F)c(F)c1` [Example 503, (S)-6-(((1H-1,2,3-triazol-4-yl)(2,4,6-trifluorophenyl)methyl)amino)-8-chloro-4-((5,6-difluoropyridin-3-yl)amino)quinoline-3-carbonitrile], in assay [1] (setting [5]), the IC50 was 98 nM. The EC50 in assay [2] (setting [4]) is 1690 nM.
With `[2H][C@](Nc1cc(Cl)c2ncc(C#N)c(NC3(C#N)CC3)c2c1)(c1ccc(F)cc1)c1cn(C2CC2)nn1` [Example 217, (S)-8-chloro-4-((1-cyanocyclopropyl)amino)-6-(((1-cyclopropyl-1H-1,2,3-triazol-4-yl)(4-fluorophenyl)methyl-d)amino)quinoline-3-carbonitrile], the IC50 in assay [1] (setting [3]) was determined as 327 nM. Moreover, the EC50 in assay [2] (setting [4]) was determined as 3580 nM.
For `[2H][C@](Nc1cc(Cl)c2ncc(C#N)c(NC(C)CCO)c2c1)(c1ccc(F)cc1)c1cn(C2CC2)nn1` (stereo partly shown) [Example 174], the IC50 in assay [1] (setting [3]) worked out at 837 nM. Also, the EC50 in assay [2] (setting [4]) was more than 10000 nM.
With `CC(C)n1cc([C@@H](Nc2cc(Cl)c3ncc(C#N)c(N[C@H](C)c4ccccc4)c3c2)c2ccccc2)nn1` [Example 588, 8-chloro-6-(((S)-(1-isopropyl-1H-1,2,3-triazol-4-yl)(phenyl)methyl)amino)-4-(((R)-1-phenylethyl)amino) quinoline-3-carbonitrile], the concentration for half-maximal inhibition (IC50) in assay [1] (setting [5]) is 17 nM. For the same compound, in assay [2] (setting [4]), the EC50 came to 1020 nM.
On the same counts, the results for `CCN1CC[C@@H](n2cc([C@@H](Nc3cc(Cl)c4ncc(C#N)c(Nc5ccc(F)c(Cl)c5)c4c3)c3ccccc3)nn2)[C@H](O)C1` [Example 514, 8-chloro-4-((3-chloro-4-fluorophenyl)amino)-6-(((S)-(1-((3R,4R)-1-ethyl-3-hydroxypiperidin-4-yl)-1H-1,2,3-triazol-4-yl)(phenyl)methyl)amino) quinoline-3-carbonitrile] are 2 nM and 62 nM.
Consider `CC(C)(C)CNc1c(C#N)cnc2c(C#N)cc(N[C@H](c3cn(C4(C#N)CC4)nn3)c3ccccc3Cl)cc12` [Example 956, (S)-6-(((2-chlorophenyl)(1-(1-cyanocyclopropyl)-1H-1,2,3-triazol-4-yl)methyl)amino)-4-(neopentylamino)quinoline-3,8-dicarbonitrile], for which the IC50 in assay [1] (setting [6]) was determined as 5 nM. Moreover, in assay [2] (setting [7]), the EC50 was 61 nM.
For `CC[C@@H](Nc1c(C#N)cnc2c(Cl)cc(N[C@H](c3c[nH]nn3)c3cccc(F)c3F)cc12)c1ccccc1` [Example 445, 8-chloro-6-(((S)-(2,3-difluorophenyl)(1H-1,2,3-triazol-4-yl)methyl)amino)-4-(((R)-1-phenylpropyl)amino) quinoline-3-carbonitrile], in assay [1] (setting [5]), the IC50 was 46 nM. The 50% effective concentration (EC50) in assay [2] (setting [4]) came out at 1270 nM.
In the case of `N#Cc1cnc2c(Cl)cc(N[C@@H](c3ccc(F)cc3)c3cn(C(F)F)nn3)cc2c1Nc1cnc(F)c(F)c1` [Example 377, (S)-8-chloro-6-(((1-(difluoromethyl)-1H-1,2,3-triazol-4-yl)(4-fluorophenyl)methyl)amino)-4-((5,6-difluoropyridin-3-yl)amino)quinoline-3-carbonitrile], the IC50 in assay [1] (setting [3]) is 495 nM. In assay [2] (setting [4]), the EC50 was more than 10000 nM.
With `[2H][C@](Nc1cc(S(C)(=O)=O)c2ncc(C#N)c(NCC(C)(C)C)c2c1)(c1ccc(F)cc1)c1cn(C2CC2)nn1` [Example 931, (S)-6-(((1-cyclopropyl-1H-1,2,3-triazol-4-yl)(4-fluorophenyl)methyl-d)amino)-8-(methylsulfonyl)-4-(neopentylamino)quinoline-3-carbonitrile], the IC50 in assay [1] (setting [6]) was 27 nM. In addition, the EC50 in assay [2] (setting [7]) is 447 nM.
With `[2H][C@](Nc1cc(C#N)c2ncc(C#N)c(NCC(C)(C)C)c2c1)(c1ccc(F)cc1)c1cn(C2(C(F)(F)F)CC2)nn1` [Example 130, (S)-6-(((4-fluorophenyl) (1-(1-(trifluoromethyl)cyclopropyl)-1H-1,2,3-triazol-4-yl)methyl-d)amino)-4-(neopentylamino) quinoline-3,8-dicarbonitrile], the IC50 in assay [1] (setting [3]) amounted to 23 nM. Also, in assay [2] (setting [4]), the EC50 came to 195 nM.
As for `CC(C)(C)CNc1c(C#N)cnc2c(Cl)cc(N[C@@H](c3ccc(F)cc3)c3cn(-c4ccccc4)nn3)cc12` [Example 395, (S)-8-chloro-6-(((4-fluorophenyl)(1-phenyl-1H-1,2,3-triazol-4-yl)methyl)amino)-4-(neopentylamino)quinoline-3-carbonitrile], the IC50 in assay [1] (setting [3]) worked out at 47 nM. Besides, in assay [2] (setting [4]), the EC50 turned out to be 273 nM.
As for `N#Cc1cnc2c(Cl)cc(N[C@@H](c3ccc(F)cc3)c3cn(CC(F)F)nn3)cc2c1Nc1cnc(F)c(F)c1` [Example 409, (S)-8-chloro-6-(((1-(2,2-difluoroethyl)-1H-1,2,3-triazol-4-yl)(4-fluorophenyl)methyl)amino)-4-((5,6-difluoropyridin-3-yl)amino)quinoline-3-carbonitrile], the 50% inhibitory concentration (IC50) in assay [1] (setting [5]) turned out to be 23 nM. Also, the EC50 in assay [2] (setting [4]) came out at 776 nM.
Consider `[2H][C@](Nc1cc(Cl)c2ncc(C#N)c(NCC(C)(C)C)c2c1)(c1cn(C2[C@H]3CN(C4COC4)C[C@@H]23)nn1)c1ccccc1Cl` (stereo partly drawn) [Example 100, 8-chloro-6-(((2-chlorophenyl) (1-((1R,5S,6r)-3-(oxetan-3-yl)-3-azabicyclo[3.1.0]hexan-6-yl)-1H-1,2,3-triazol-4-yl)methyl-d)amino)-4-(neopentylamino) quinoline-3-carbonitrile], for which, in assay [1] (setting [3]), the IC50 was found to be 16 nM. In addition, in assay [2] (setting [4]), the EC50 stood at 337 nM.
As to `N#Cc1cnc2c(Cl)cc(N[C@@H](c3ccccc3)c3cn(CC(O)C(F)(F)F)nn3)cc2c1Nc1ccc(F)c(Cl)c1` (stereo partly drawn) [Example 605, 8-chloro-4-((3-chloro-4-fluorophenyl)amino)-6-(((1S)-phenyl(1-(3,3,3-trifluoro-2-hydroxypropyl)-1H-1,2,3-triazol-4-yl)methyl)amino)quinoline-3-carbonitrile], the IC50 in assay [1] (setting [5]) turned out to be 41 nM. Moreover, in assay [2] (setting [4]), the half-maximal effective concentration (EC50) stood at 375 nM.

For orientation: IC50 means the point on the concentration scale where inhibition reaches its midpoint. For orientation: EC50 means the concentration giving half of the maximal effect.
